From publication PMC3699650, “Structural Insights into the Abscisic Acid Stereospecificity by the ABA Receptors PYR/PYL/RCAR” (PLoS ONE, 2013)

Assays:
PYL9 (with HAB1) [1] = target: T1, PYL9 (with HAB1) (Arabidopsis thaliana, UniProt Q84MC7); experiment: HAB1 phosphatase inhibition assay; type: biochemical; conditions: Hepes pH 7.5, 30 °C
T1 construct: PYL9 from E. coli BL21(DE3), pET-28a or pGEX-4T-2 (TEV site), IMAC and SEC, monomer; HAB1 residues 169-511, GST cut by TEV; with Protein phosphatase 2C 16
T1 sequence (Q84MC7 1-187): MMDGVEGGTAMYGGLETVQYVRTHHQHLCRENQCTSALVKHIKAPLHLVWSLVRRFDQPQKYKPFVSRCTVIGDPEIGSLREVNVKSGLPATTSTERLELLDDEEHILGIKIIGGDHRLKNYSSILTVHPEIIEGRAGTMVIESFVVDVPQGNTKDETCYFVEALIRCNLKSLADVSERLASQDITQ
T1 sequence (Q9CAJ0 169-511 partner): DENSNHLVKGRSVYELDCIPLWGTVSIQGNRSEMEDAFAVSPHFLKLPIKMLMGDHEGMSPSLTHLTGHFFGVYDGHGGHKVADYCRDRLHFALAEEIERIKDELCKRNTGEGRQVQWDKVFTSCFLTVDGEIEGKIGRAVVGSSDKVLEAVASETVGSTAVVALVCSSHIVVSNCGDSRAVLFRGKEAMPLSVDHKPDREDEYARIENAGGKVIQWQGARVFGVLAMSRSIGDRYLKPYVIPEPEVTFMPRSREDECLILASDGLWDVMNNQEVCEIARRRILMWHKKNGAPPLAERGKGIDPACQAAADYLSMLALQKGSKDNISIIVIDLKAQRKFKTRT

PYL10 (with HAB1) = target: T2, PYL10 (with HAB1) (Arabidopsis thaliana, UniProt Q8H1R0); experiment: HAB1 phosphatase inhibition assay (phosphopeptide, molybdate); type: biochemical
T2 construct: PYL10 from E. coli BL21(DE3), pET-28a or pGEX-4T-2 (TEV site), IMAC and SEC; HAB1 residues 169-511, GST cut by TEV; with Protein phosphatase 2C 16
T2 sequence (Q8H1R0 1-183): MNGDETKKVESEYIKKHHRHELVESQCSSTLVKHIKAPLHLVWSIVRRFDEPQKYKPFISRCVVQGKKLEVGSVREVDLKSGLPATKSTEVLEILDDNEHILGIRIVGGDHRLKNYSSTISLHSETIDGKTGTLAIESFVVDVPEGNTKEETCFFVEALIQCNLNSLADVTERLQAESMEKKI
T2 sequence (Q9CAJ0 169-511 partner): T1 sequence (Q9CAJ0 169-511 partner)

PYL3 = target: T3, PYL3 (Arabidopsis thaliana, UniProt Q9SSM7); experiment: isothermal titration calorimetry; type: binding; conditions: 20 °C, 20 mM Tris-HCl pH 8.0, 150 mM NaCl; 0.3 mM (−)-ABA into 0.22 mM PYL3
T3 construct: apo mainly dimer
T3 sequence (Q9SSM7 1-209): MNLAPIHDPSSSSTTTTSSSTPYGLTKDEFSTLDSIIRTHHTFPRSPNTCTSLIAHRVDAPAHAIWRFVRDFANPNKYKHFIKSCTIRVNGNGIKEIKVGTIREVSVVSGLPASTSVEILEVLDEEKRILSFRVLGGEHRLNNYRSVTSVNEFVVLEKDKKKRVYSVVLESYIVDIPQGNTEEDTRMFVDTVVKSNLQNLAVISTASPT

PYL9 (with HAB1) [2] = target: T1, PYL9 (with HAB1); experiment: HAB1 phosphatase inhibition assay (phosphopeptide, molybdate); type: biochemical
PYL4 (with HAB1) = target: T4, PYL4 (with HAB1) (Arabidopsis thaliana, UniProt O80920); experiment: as above; type: biochemical
T4 construct: PYL4 from E. coli BL21(DE3), pET-28a or pGEX-4T-2 (TEV site), IMAC and SEC; HAB1 residues 169-511, GST cut by TEV; with Protein phosphatase 2C 16
T4 sequence (O80920 1-207): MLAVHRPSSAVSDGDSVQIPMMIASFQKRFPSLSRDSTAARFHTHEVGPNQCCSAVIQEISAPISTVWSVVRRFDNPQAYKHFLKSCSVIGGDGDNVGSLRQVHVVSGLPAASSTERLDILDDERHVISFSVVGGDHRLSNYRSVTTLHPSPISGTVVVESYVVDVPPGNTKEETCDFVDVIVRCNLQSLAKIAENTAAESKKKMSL
T4 sequence (Q9CAJ0 169-511 partner): T1 sequence (Q9CAJ0 169-511 partner)

PYL5 (with HAB1) = target: T5, PYL5 (with HAB1) (Arabidopsis thaliana, UniProt Q9FLB1); experiment: as above; type: biochemical
T5 construct: PYL5 from E. coli BL21(DE3), pET-28a or pGEX-4T-2 (TEV site), IMAC and SEC, monomer; HAB1 residues 169-511, GST cut by TEV; with Protein phosphatase 2C 16
T5 sequence (Q9FLB1 1-203): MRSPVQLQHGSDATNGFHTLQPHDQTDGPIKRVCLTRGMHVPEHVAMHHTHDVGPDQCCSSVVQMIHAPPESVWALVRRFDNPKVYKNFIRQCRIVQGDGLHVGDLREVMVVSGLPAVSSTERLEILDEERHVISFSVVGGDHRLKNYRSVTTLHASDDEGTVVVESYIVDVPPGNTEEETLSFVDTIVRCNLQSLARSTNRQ
T5 sequence (Q9CAJ0 169-511 partner): T1 sequence (Q9CAJ0 169-511 partner)

PYL1 (with HAB1) = target: T6, PYL1 (with HAB1) (Arabidopsis thaliana, UniProt Q8VZS8); experiment: as above; type: biochemical
T6 construct: PYL1 from E. coli BL21(DE3), pET-28a or pGEX-4T-2 (TEV site), IMAC and SEC; HAB1 residues 169-511, GST cut by TEV; with Protein phosphatase 2C 16
T6 sequence (Q8VZS8 2-221): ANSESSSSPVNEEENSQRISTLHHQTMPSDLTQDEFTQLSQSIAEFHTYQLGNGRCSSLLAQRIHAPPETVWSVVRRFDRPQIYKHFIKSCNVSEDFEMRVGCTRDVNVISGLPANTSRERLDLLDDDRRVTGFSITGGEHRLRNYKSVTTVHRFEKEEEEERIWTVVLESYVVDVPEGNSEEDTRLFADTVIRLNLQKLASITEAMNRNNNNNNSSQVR
T6 sequence (Q9CAJ0 169-511 partner): T1 sequence (Q9CAJ0 169-511 partner)

PYL8 (with HAB1) = target: T7, PYL8 (with HAB1) (Arabidopsis thaliana, UniProt Q9FGM1); experiment: as above; type: biochemical
T7 construct: PYL8 from E. coli BL21(DE3), pET-28a or pGEX-4T-2 (TEV site), IMAC and SEC; HAB1 residues 169-511, GST cut by TEV; with Protein phosphatase 2C 16
T7 sequence (Q9FGM1 1-188): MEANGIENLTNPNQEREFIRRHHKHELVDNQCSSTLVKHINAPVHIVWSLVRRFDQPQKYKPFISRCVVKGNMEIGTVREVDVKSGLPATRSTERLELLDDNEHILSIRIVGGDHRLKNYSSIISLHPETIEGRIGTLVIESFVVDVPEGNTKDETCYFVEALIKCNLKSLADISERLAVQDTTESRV
T7 sequence (Q9CAJ0 169-511 partner): T1 sequence (Q9CAJ0 169-511 partner)

PYL2 (with HAB1) = target: T8, PYL2 (with HAB1) (Arabidopsis thaliana, UniProt O80992); experiment: as above; type: biochemical
T8 construct: PYL2 from E. coli BL21(DE3), pET-28a or pGEX-4T-2 (TEV site), IMAC and SEC; HAB1 residues 169-511, GST cut by TEV; with Protein phosphatase 2C 16
T8 sequence (O80992 1-190): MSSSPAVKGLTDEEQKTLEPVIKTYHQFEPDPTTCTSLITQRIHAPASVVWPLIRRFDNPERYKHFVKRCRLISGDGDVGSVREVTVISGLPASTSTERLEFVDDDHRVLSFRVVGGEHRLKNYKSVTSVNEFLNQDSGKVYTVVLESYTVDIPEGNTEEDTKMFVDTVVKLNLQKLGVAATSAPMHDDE
T8 sequence (Q9CAJ0 169-511 partner): T1 sequence (Q9CAJ0 169-511 partner)

PYL6 (with HAB1) = target: T9, PYL6 (with HAB1) (Arabidopsis thaliana, UniProt Q8S8E3); experiment: as above; type: biochemical
T9 construct: PYL6 from E. coli BL21(DE3), pET-28a or pGEX-4T-2 (TEV site), IMAC and SEC; HAB1 residues 169-511, GST cut by TEV; with Protein phosphatase 2C 16
T9 sequence (Q8S8E3 1-215): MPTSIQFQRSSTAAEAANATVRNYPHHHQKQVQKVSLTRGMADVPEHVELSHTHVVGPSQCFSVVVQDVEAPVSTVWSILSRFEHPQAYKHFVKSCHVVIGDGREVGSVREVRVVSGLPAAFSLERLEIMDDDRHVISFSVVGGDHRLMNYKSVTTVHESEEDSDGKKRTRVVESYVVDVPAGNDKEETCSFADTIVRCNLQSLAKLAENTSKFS
T9 sequence (Q9CAJ0 169-511 partner): T1 sequence (Q9CAJ0 169-511 partner)

PYR1 (with HAB1) = target: T10, PYR1 (with HAB1) (Arabidopsis thaliana, UniProt O49686); experiment: as above; type: biochemical
T10 construct: PYR1 from E. coli BL21(DE3), pET-28a or pGEX-4T-2 (TEV site), IMAC and SEC; HAB1 residues 169-511, GST cut by TEV; with Protein phosphatase 2C 16
T10 sequence (O49686 1-191): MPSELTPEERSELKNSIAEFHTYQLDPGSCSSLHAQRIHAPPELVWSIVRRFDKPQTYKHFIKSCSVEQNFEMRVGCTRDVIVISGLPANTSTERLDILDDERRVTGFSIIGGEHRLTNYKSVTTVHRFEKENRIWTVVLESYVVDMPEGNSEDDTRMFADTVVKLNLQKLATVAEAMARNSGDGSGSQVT
T10 sequence (Q9CAJ0 169-511 partner): T1 sequence (Q9CAJ0 169-511 partner)

Row | Structure (SMILES) | HAB1 phosphatase inhibition assay (PYL9 (with HAB1) [1]) | IC50 (PYL10 (with HAB1)) [nM] | binding affinity (PYL3) | IC50 (PYL9 (with HAB1) [2]) [nM] | IC50 (PYL4 (with HAB1)) [nM] | IC50 (PYL5 (with HAB1)) [nM] | IC50 (PYL1 (with HAB1)) [nM] | IC50 (PYL8 (with HAB1)) [nM] | IC50 (PYL2 (with HAB1)) [nM] | IC50 (PYL6 (with HAB1)) [nM] | IC50 (PYR1 (with HAB1)) [nM]
1 | CC1=CC(=O)CC(C)(C)[C@@]1(O)/C=C/C(C)=C/C(=O)O [(+)-ABA] | PYL9 can inhibit HAB1 in the presence of (+)-ABA | – | – | – | – | – | – | – | – | – | –
2 | CC1=CC(=O)CC(C)(C)[C@]1(O)/C=C/C(C)=C\C(=O)O [(−)-ABA] | – | 15000 | ITC results showed that the binding affinity of (−)-ABA to PYL3 was less | > 10000 | 480 | 170 | 3100 | 1600 | 2500 | 470 | 4500
